Entries after “also recorded” stand apart in the source; their conditions may differ.
How the values were obtained:
[1] = tested on: RPMI 8226 multiple myeloma cells; assay: CellTiter-Glo cell viability assay, RPMI 8226; assay type: cell-based, human; conditions: RPMI 8226, 10 μM, 48 h
Description: Minor effects on the proliferation of the IH-1 and RPMI 8226 cell lines are seen. Cells were seeded at the level shown (left-hand bar of each set) then incubated in medium containing water, 10 μM penetratin or 10 μM P7-A4-Pen for 48 hr (except for INA-6 cells, which were incubated with 12.5 μM penetratin or 12.5 μM P7-A4-Pen). The number of viable cells was detected based on quantitation of ATP by luminescent signal in correlation to a standard curve prepared for each cell line. Results are based on 3-5 biological replicates for each condition, error bars show standard deviation of mean.
Multiple myeloma cells JJN-3 (DSMZ (Germany) no. ACC 541), ANBL-6 (Cellosaurus accession number CVCL_5425, obtained from Dr Diane Jelinek, Mayo Clinic, Rochester, Minn.), INA-6 (Cellosaurus accession number CVCL_5209, obtained from Dr M. Gramatzki, University of Erlangen-Nurnberg, Erlangen, Germany), RPMI-8226 (ATCC CCL-155), and IH-1 (Cellosaurus accession number CVCL_WZ44, established from the pleural effusion of a myeloma patient by Myeloma research group, IKOM, NTNU, Trondheim, Norway) were grown in RPMI-1640 (Sigma-Aldrich Norway, Oslo, Norway) supplemented with 100 nM penicillin/streptomycin and 10% FCS, and for ANBL-6, IH-1 and INA-6 cells 2 ng/ml recombinant IL-6 (Gibco, Thermo Fisher Scientific, Waltham, Mass., USA). […]

human IL-1 receptor = assay: HEK-Blue IL-1R cells stimulated with human recombinant IL-1β; assay type: cell-based
Source text: TLR2 and 4, and the endosomal TLRs 7-9, use the Myddosome signaling complex to activate transcription of pro-inflammatory cytokines, and endosomal TLRs also activate expression of type I IFNs via the same signaling complex. There are also several IL-1-like receptors including the IL-1 receptor (IL-1R) itself, which is characterized by extracellular immunoglobulin-like domains and intracellular Toll/Interleukin-1R (TIR) domains. These receptors also use the Myddosome complex to initiate downstream signaling. Therefore, we decided to test if signaling downstream of human IL-1R could be altered by the P7-Pen peptide. We used HEK-Blu IL-1R cells (Invivogen) that endogenously express the human IL-1 receptor. HEK-Blue IL-1R cells express a SEAP reporter gene under the control of the IFNβ minimal promoter fused to five NF-κB and five AP-1 binding sites. Binding of IL-1β to its receptor IL-1R on the surface of HEK-Blue IL-1R cells triggers a signaling cascade leading to the activation NF-κB and the subsequent production of SEAP.
In the assay, HEK-Blue IL-1R cells were pre-treated with control peptide or P7-Pen and stimulated with human recombinant II-1β (hII-1β) for up to 3 hr or for 24 hr. Stimulation of cells by TLR2 and 4 as well as by IL-1β would result in fast posttranslational modifications of IRAK1 in the Myddosome, and in phosphorylation of p38 MAPK. […]

SW480 cells = assay: Proliferation of SW480 colon cancer cells; assay type: cell-based, human; conditions: 15 μM, 48 h, with or without LPS 100 ng/ml
Description: SW480 cells were seeded and incubated in medium alone or supplemented with water, 15 μM penetratin, 15 μM P7-Pen or 15 μM P7-N4-Pen. Under each condition cells were incubated both without LPS and with 100 ng/ml LPS. Cells were incubated for 48 hours then counted. […] The presence of LPS made no difference to the effect of the peptides on proliferation. Results are based on 3 biological replicates, error bars show standard deviation of mean.
SW480 (ATCC CCL-228) and Jurkat (ATCC Clone E6-1; TIB-152) cells were cultured in RPMI 1640 (Sigma-Aldrich, Schnelldorf, Germany) supplemented with 10% heat-inactivated FCS, penicillin/streptomycin (Life Technologies) and 20 mM L-Glutamine. THP-1 cells (ATCC TIB-202) were cultured in RPMI-1640 (high-glucose, ATCC) supplemented with 10% heat inactivated foetal calf serum (FCS), 100 nM penicillin/streptomycin and 5 μM β-mercaptoethanol (Sigma). THP-1 cells were differentiated with 60 ng/ml phorbol 12-myristate 13-acetate (PMA, Sigma) for 72 h, followed by 24 or 48 h in medium without PMA.
The peptides were tested against the SW480 cell line in the presence and absence of LPS.

TLR8 = assay: Primary human macrophages stimulated with CL075: cytokine mRNA, Western blot, IRAK precipitations; assay type: cell-based; conditions: TLR8-stimulated cells, 15 μM, CL075 3 μg/ml
Description: Primary human macrophages (PBMC derived, differentiated in media with 10% human serum and M-CSF 20 ng/ml, 7 days) were stimulated with K12 LPS (100 ng/ml), FSL-1 (100 ng/ml) or CL075 (3 μg/ml). […] (B) qPCR for mRNA expression of IFNβ, IL-6, TNF and IL-1β, average for three biological replicates, error bars ±SD.
Primary human macrophages (7 days) were pre-treated with Pen or P7-Pen (15 μM) for 30 min before addition of LPS (100 ng/ml), FSL-1 (100 ng/ml) or CL075 (3 μg/ml). A: Protein expression in lysates for input control. B,C: Precipitations were performed using sheep anti-IRAK4 (B) or anti-IRAK1 (C) polyclonal antibodies covalently bound to magnetic beads.

| Substance | cell proliferation [1] | IL-1β-induced IRAK1 posttranslational modifications or p-p38 MAPK levels (human IL-1 receptor; data not shown) | IL-1β-mediated secretion of SEAP (human IL-1 receptor; versus cells pre-treated with control peptide Pen (data not shown)) | effect on proliferation of SW480 cells (SW480 cells) | IRAK1 and IRAK4 recruitment to MyD88 at an early time point (TLR8) | late recruitment of IRAKs or phosphorylation of p38 MAPKs (TLR8) |
| --- | --- | --- | --- | --- | --- | --- |
| Ac-ITVAASVTLTGRQIKIWFQNRRMKWKK-NH2 [Peptide P7-A4-Pen] | Minor effects; also recorded: inhibited cell proliferation |  |  |  |  |  |
| Ac-ITVYASVTLTGRQIKIWFQNRRMKWKK-NH2 [Peptide P7-Pen] |  | no effect | comparable | a degree of anti-proliferative effect | inhibitory effect | no effect |

Reference: patent US20230220047A1, “PEPTIDES FOR TREATMENT OF SEPSIS AND CANCER” (NORWEGIAN UNIVERSITY OF SCIENCE AND TECHNOLOGY (NTNU), priority 2020, published 2023)
